Assay in all cases: growth of human tumour cells (NCI), 48 h
Assay [1] concerns PC-3 prostate.
Assay [2] concerns MDA-N.
Assay [3] has as its system DLD-1 colon.
The test system of assay [4] is SNB-78 CNS.
The subject of assay [5] is M19-MEL melanoma.
Assay [6] deals with XF 498 CNS.
For assay [7], the system named is DMS 114 small cell lung.
The test system of assay [8] is KM20L2 colon.
Assay [9] concerns HOP-18 NSCLC.

Where “and” joins values, the source holds several entries; their conditions need not be identical. Equal values may be shown once.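 Grown in 96-well plates, cells were treated for 48 hours with each compound at five concentrations. Insufficient inhibition: endpoint recorded as highest concentration tested. GI50 = concentration required for 50% inhibition of growth. TGI marks complete inhibition of growth.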

Experimental findings from PubChem BioAssay (NCI) are described below.

In the case of `CC(C)NC[C@@H](C(=O)N1CCN(c2ncnc3c2[C@H](C)C[C@H]3O)CC1)c1ccc(Cl)cc1`, in assay [1], the GI50 was 0.566 µM and 0.887 µM; the TGI is above 100 µM.
Take `COc1cc(Cl)cc(-c2nn(C(=O)NCCN3CCOCC3)cc2-c2ccncc2)c1`: in assay [1], the GI50 was 4.24 µM and the TGI was above 100 µM.
Regarding `O=C(Cn1ccc(=O)[nH]c1=O)Nc1ccc(C(=O)O)c(O)c1`, the TGI in [2] and in [1] was above 100 µM each time.
With `O=CNc1c(Cl)cc2c(c1Cl)Cc1cc([N+](=O)[O-])ccc1-2`, in assay [1], the GI50 is 8.06 µM and the TGI is above 100 µM.
`CCCC[C@H](NC(=O)[C@H]1CCCN1C)C(=O)N(C)[C@H](C[C@@H](OC(C)=O)c1nc(C(=O)N[C@@H](Cc2ccccc2)C[C@H](C)C(=O)OCC)cs1)C(C)C`: in assay [1], the GI50 was 0.00957 µM and the TGI is above 33.3 µM.
The like results for `O=C1OC(=O)C(c2c[nH]c3ccccc23)=C1c1c[nH]c2ccccc12` were, in that order, above 18 µM and above 25 µM.
As to `CCN(CC)c1ccc(C(=C2C=CC(=[N+](CC)Cc3cccc(S(=O)(=O)O)c3)C=C2)c2ccc(N(CC)Cc3cccc(S(=O)(=O)O)c3)cc2)cc1`, in assay [1], the GI50 was 6.87 µM and the TGI was above 66.3 µM.
Regarding `COC(=O)CCC1CCc2c(OC)ccc(O)c2C1=O` (centres undefined), the TGI in [3], in assay [4] and in assay [5] was above 100 µM each time.
In the case of `Cc1cc(N(CCC#N)S(=O)(=O)c2ccccc2)ccc1/C=C1N=C(/C=C/c2ccccc2)OC\1=O`, the TGI in assay [6], in assay [3], in [7], in assay [4] and in [8] was above 100 µM in each case.
On to `O=c1c2c([nH]c3cc4c(cc13)OCO4)-c1ccccc1CC2`, for which the TGI in assay [6], in assay [3], in assay [7], in assay [5] and in assay [8] was above 100 µM each time.
Consider `CCN(Cc1ccc(F)c(F)c1)c1ccc(CO)c(Cl)c1`, for which, in assay [1], the GI50 was 12.3 µM and the TGI was 27.4 µM.
Consider `C[C@H](Nc1ncnc2nc[nH]c12)c1cc2cccc(Cl)c2c(=O)n1-c1ccccc1`, for which, in assay [1], the GI50 is 2.39 µM and the TGI was above 100 µM.
As to `O=C([O-])c1ccccc1Nc1ccccn1.O=C([O-])c1ccccc1Nc1ccccn1.[Ni+2]`, the GI50 was above 100 µM in assay [3], above 100 µM in assay [7], 91.8 µM in assay [4] and above 100 µM in assay [5]. For the same compound, the TGI in [3], in [7], in assay [4] and in [5] was above 100 µM each time.
In the case of `CC1SC(c2c(Cl)cccc2Cl)N(NC(=O)c2[nH]c3ccc(F)cc3c2-c2ccccc2)C1=O` (centres undefined), in [1], the GI50 was 1.98 µM and the TGI came out at 4.46 µM.
The like results for `COc1c(CCC[P+](c2ccccc2)(c2ccccc2)c2ccccc2)cc2c(c1OC)OCO2` were, in that order, 0.961 µM and 22.4 µM.
Take `COC(=O)[C@@H](C)C[C@H](Cc1ccccc1)NC(=O)c1nc([C@@H](C[C@H](C(C)C)N(C)C(=O)[C@@H](NC(=O)[C@H]2CCCCN2C)C(C)C)OC(C)=O)sc1C`: in [1], the GI50 is below 0.00167 µM and the TGI was above 16.7 µM.
The like results for `N#Cc1cnc2cc(OC[C@H](O)CO)c(NC(=O)CC3CSSC3)cc2c1Nc1ccc(OCc2cccc(F)c2)c(Cl)c1` were, in that order, 0.162 µM and 0.451 µM.
For `Cc1ccc(C(=O)O/N=C2/CCC/C2=C\c2ccccc2)cc1`, the TGI in assay [9], in [3], in assay [7], in assay [4], in assay [5] and in assay [8] was above 100 µM in each case.
On to `C[C@@H](C(=O)Nc1ccc(Cl)cc1)C1CCC(c2ccnc3ccc(F)cc23)CC1` (some centres undefined), for which, in assay [1], the GI50 was 3.43 µM and the TGI is above 100 µM.
On to `CN(C)/C=C/c1nnc([N+](=O)[O-])s1`, for which the TGI in assay [2] worked out at 17.4 µM; in assay [1] it was 22 µM.
The matching figures for `COc1c2c(c3c(c1CCC(=O)O)OC(C)(C)C=C3)OC(C)(C)C=C2`: above 100 µM and above 100 µM.
Take `O=C(c1ccccc1)C1N=NCC1c1ccc([N+](=O)[O-])cc1` (centres undefined): the TGI in assay [2] and in assay [1] was above 100 µM throughout.
For the compound `O=C(CC(=O)CC(O)(C(F)(F)F)C(F)(F)F)CC(O)(C(F)(F)F)C(F)(F)F`, the TGI in assay [2] was above 10 µM.
Regarding `C=CCC1([C@H](C)[C@@H](OC(C)=O)c2cc(OC)c(OC)c(OC)c2)C[C@@H](OC)CCC1=O` (some centres undefined), the TGI in [6] worked out at 32.9 µM; in [3], 37.5 µM; in assay [7] it was 44.4 µM; in assay [5] it was 91.3 µM; in [8], 24.6 µM.
For `COC(=O)[C@H](Cc1cn(C)cn1)NC(=O)[C@H](Cc1c[nH]c2ccccc12)NC(=O)Nc1cc(C(F)(F)F)cc(C(F)(F)F)c1`, in assay [1], the GI50 is above 10 µM and the TGI is above 10 µM.
In the case of `CC(=O)NNc1nc(C)c(C(=O)NNC(=O)C(=O)Nc2ccccc2C#N)s1`, the TGI in [9], in assay [3], in [7], in assay [4], in assay [5] and in [8] was above 100 µM in each case.
As to `COc1ccccc1NC(=O)C1=C(C)NC(C)=C(C(=O)Nc2ccccc2OC)C1c1ccccc1F`, the TGI in assay [9], in [3], in assay [7], in [4] and in assay [8] was above 100 µM each time.
Regarding `COc1ccc(C(=O)/C=C/c2ccc(/C=C/c3cc(OC)c(OC)c(OC)c3)cc2)cc1`, in assay [1], the GI50 is 5.65 µM and the TGI was above 100 µM.
`C[N+](C)(C)CC(=O)N/N=C(/Cc1nc2c3c(ccc2[nH]c1=O)C(=O)c1ccccc1C3=O)C(=O)Nc1ccc(Cl)c(Cl)c1`: the TGI in [3], in assay [7], in [5] and in assay [8] was above 100 µM in each case.
In the case of `Cc1occc1C(=S)Nc1ccc(Cl)c(COC(C)(C)C)c1`, the results for the TGI in assay [2] and in [1] were 34.4 µM and 30.6 µM, respectively.
Turning to `COc1cccc(NC(=O)CC(=O)N2N=C(N(CCC#N)c3ccc(Cl)cc3)CC2c2ccccc2)c1` (centres undefined), the TGI in assay [9], in assay [3], in assay [7], in [4], in [5] and in [8] was above 100 µM in each case.
For the compound `COc1ccc(-c2ccc(/C=N/n3c(COc4ccc(Cl)cc4Cl)n[nH]c3=S)o2)c([N+](=O)[O-])c1`, in [1], the GI50 is 19.4 µM and the TGI came out at 47.1 µM.
`CCN(CC)S(=O)(=O)c1ccc(OC)c(Nc2ncc(-c3ccccc3)o2)c1`: in [1], the GI50 is above 15.9 µM and the TGI was above 25 µM.
For `COC(=O)/C=C/C=C(c1ccccc1)c1ccccc1`, in [1], the GI50 is 4.67 µM and the TGI was above 100 µM.
As for `CNC(=O)n1ccc2cc(Oc3ccnc(NC(=O)c4ccc(C5CCN(CCO)CC5)cc4)c3)c(OCCOC)cc21`, in assay [1], the GI50 is 6.1 µM and the TGI was 26.2 µM.
The matching figures for `CNC(=O)c1cncc(/C=C/c2ccccc2C)c1`: above 25 µM and above 25 µM.
With `C=CCc1c2c(c(OC)c3ccoc13)C(=O)/C(=C/c1ccccc1OC)O2`, in [1], the GI50 was 5.25 µM and the TGI is above 100 µM.
Turning to `COc1cc(C2c3cc4c(cc3OC(N3CCCC3)C2C)OCO4)cc(OC)c1OC` (centres undefined), the TGI in assay [2] is 0.418 µM; in [1] it was above 62.5 µM.
On to `Cc1sc(C(=O)Nc2cc(C(=O)NCCCN(C)C)n(C)c2)cc1NC(=O)CCCN1C(=O)c2cccc3cccc(c23)C1=O`, for which, in [1], the GI50 was above 100 µM and the TGI is above 100 µM.
For the compound `CN(C)S(=O)(=O)c1ccc(NC(=O)COC(=O)c2ccc(S(=O)(=O)N3CCCCC3)cc2)cc1`, in assay [1], the GI50 was above 100 µM and the TGI is above 100 µM.
As to `CC/C=C\C=C/C(=O)N/C=C/CC1Cc2cccc(O)c2C(=O)O1` (centres undefined), in assay [1], the GI50 was 25.3 µM and the TGI is above 100 µM.
With `CCCN=Cc1cc(Cc2ccc(O)c(C=NCCC)c2)ccc1O`, the TGI worked out at 10.1 µM in [2] and 5.89 µM in assay [1].
For `COC1(C(=O)N[C@@H](C)c2ccc(-n3cc(F)cn3)nc2)CCC(c2nc(C)cc(Nc3cc(C)[nH]n3)n2)CC1` (some centres undefined), in [1], the GI50 was 3.66 µM and the TGI turned out to be 32.7 µM.
The matching figures for `COc1ccc(N2C(C)=C(C#N)C34C(=O)N(c5ccccc5)C(=O)C3=C(O)C=CC24O)cc1` (centres undefined): 17.1 µM and 62.5 µM.
On to `Cc1ccc2c(ccc3c[n+]4c5ccccc5ccc4n32)c1`, for which, in [1], the GI50 was 0.946 µM and the TGI was found to be 10.4 µM.
Regarding `Cc1ccc(/C=C2\CN(C(=O)OC(C)(C)C)C/C(=C\c3ccc(C)cc3)C2=O)cc1`, in [1], the GI50 was 0.452 µM and the TGI is above 100 µM.
Take `CC(C)(C)OC(=O)C#CC[C@H]1CCCC1/C=C/C(O)=C1/C(=O)NC(CCCNC(=O)OC(C)(C)C)C1=O` (some centres undefined): the TGI is above 100 µM in assay [9]; above 100 µM in assay [3]; 61.3 µM in assay [7]; 67.9 µM in assay [5]; 53.2 µM in assay [8].
`NC(=S)N/N=C(/CC(=O)c1ccccc1)C(=O)Nc1ccc(Cl)c(Cl)c1`: the TGI in [9], in assay [3], in assay [7], in assay [4], in assay [5] and in assay [8] was above 100 µM throughout.
In the case of `CN1CCN(CCc2cccc(C(=O)c3cnn(-c4ccc(F)cc4)c3N)c2)CC1`, in [1], the GI50 is above 25 µM and the TGI was above 25 µM.
As to `Cc1[c-]onc1C.Cc1[c-]onc1C.[Ag].[Ag].[NH-]S(=O)(=O)c1ccc(N=Nc2cc(N=Nc3ccc(S([NH-])(=O)=O)cc3)c3c(NC(=O)C(Cl)Cl)cccc3c2OC(=O)C(Cl)Cl)cc1`, in assay [1], the GI50 is 6.82 µM and the TGI is above 50 µM.
For `COC(=O)[C@]12CC[C@@H](C)[C@H](C)[C@@H]1C1=CC[C@@H]3[C@@]4(C)C[C@@H](OC(C)=O)[C@H](O)[C@@](C)(COC(C)=O)[C@@H]4[C@H](O)C[C@@]3(C)[C@]1(C)CC2`, in [1], the GI50 is 1.86 µM and the TGI stood at 7.05 µM.
Turning to `CC(C)(C)C#CC1=C(Br)C(=O)OC1`, in assay [1], the GI50 is 2.39 µM and the TGI worked out at 11.2 µM.
Take `Nc1cc2cccc[n+]2c2cc(Cl)ccc12`: in assay [2], the GI50 was 12.6 µM and the TGI was found to be 38.8 µM.
On to `CC1(C)SC2C(NC(=O)C(N)c3ccccc3)C(=O)N2C1C(=O)O` (centres undefined), for which, in assay [1], the TGI was above 100 µM.
For `CC(C)(C)C[C@H]1NC(C(=O)NCC[C@H](O)CO)[C@H](c2cccc(Cl)c2)[C@@]12C(=O)Nc1cc(Cl)c(F)cc12` (some centres undefined), in [1], the GI50 is 14.9 µM and the TGI was 34.7 µM.
Take `O=Cc1cn(C(=O)c2ccccc2)c2ccccc12`: the TGI in [3], in [7], in assay [4], in assay [5] and in assay [8] was above 100 µM in each case.
Regarding `CCCCOc1ccc(NC(N)=Nc2ccc(Cl)cc2)cc1`, the TGI in assay [2] came out at 19.5 µM; in [1] it was 18.3 µM.
As for `COc1cc2c(cc1OC)C(N(C)C)C(c1ccccc1)=C2Cl` (centres undefined), the TGI in assay [9] was above 100 µM; in assay [3], 32.3 µM; in [5] it was 39.1 µM; in [8], 58.6 µM.
